Data from ChEMBL document CHEMBL2010767, “Agonists for the Chemokine Receptor CXCR4” (ACS Med Chem Lett, 2011).
The source made the active and inactive calls. The rule behind the calls is not given here.

Legend:
[1] = molecular target: T1, C-X-C chemokine receptor type 4 (Homo sapiens, UniProt P61073); experiment: Displacement of [125I]-SDF-1alpha from human CXCR4 receptor expressed in HEK293 cells after 1 hr by gamma counting; format: cell-based
[2] = molecular target: T1, C-X-C chemokine receptor type 4; experiment: Agonist activity at CXCR4 receptor in human REH cells assessed as induction of chemotactic migration at 10 nM after 3 hrs; format: functional, cell-based
[3] = molecular target: T1, C-X-C chemokine receptor type 4; experiment: Agonist activity at CXCR4 receptor in human REH cells assessed as induction of chemotactic migration after 3 hrs; format: functional, cell-based
[4] = molecular target: T1, C-X-C chemokine receptor type 4; experiment: Antagonist activity at CXCR4 receptor in human REH cells assessed as inhibition of SDF-1alpha-induced chemotactic migration after 3 hrs; format: functional, cell-based

T1 sequence (P61073 whole entry): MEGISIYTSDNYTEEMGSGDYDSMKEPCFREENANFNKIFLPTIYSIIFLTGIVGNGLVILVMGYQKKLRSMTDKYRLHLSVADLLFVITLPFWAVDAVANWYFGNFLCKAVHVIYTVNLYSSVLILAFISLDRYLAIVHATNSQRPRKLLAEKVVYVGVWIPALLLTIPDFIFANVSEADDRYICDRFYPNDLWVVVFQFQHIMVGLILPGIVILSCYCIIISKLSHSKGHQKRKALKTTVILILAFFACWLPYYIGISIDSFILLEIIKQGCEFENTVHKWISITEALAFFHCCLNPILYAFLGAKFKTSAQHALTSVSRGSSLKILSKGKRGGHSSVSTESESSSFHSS

For `CC(C)C[C@H](NC(=O)[C@H](CO)NC(=O)[C@@H](NC(=O)[C@@H]1CCCN1C(=O)[C@@H](N)CCCCN)C(C)C)C(=O)N[C@@H](CO)C(=O)N[C@@H](Cc1ccc(O)cc1)C(=O)N[C@@H](CCCN=C(N)N)C(=O)N[C@@H](CO)C(=O)N[C@@H](C)C(=O)NCCCC[C@H](NC(=O)[C@@H]1CSSC[C@H](NC(=O)[C@H](Cc2ccc3ccccc3c2)NC(=O)[C@H](CCCN=C(N)N)NC(=O)[C@@H](N)CCCN=C(N)N)C(=O)N[C@@H](Cc2ccc(O)cc2)C(=O)N[C@@H](CCCN=C(N)N)C(=O)N[C@@H](CCCCN)C(=O)N[C@H](CCCCN)C(=O)N2CCC[C@H]2C(=O)N[C@@H](Cc2ccc(O)cc2)C(=O)N[C@@H](CCCN=C(N)N)C(=O)N[C@@H](CCCN=C(N)N)C(=O)C1)C(=O)O`, the IC50 [1] was 24.9 nM.
`CC(C)C[C@H](NC(=O)[C@H](CO)NC(=O)[C@@H](NC(=O)[C@@H]1CCCN1C(=O)[C@@H](N)CCCCN)C(C)C)C(=O)N[C@@H](CO)C(=O)N[C@@H](Cc1ccc(O)cc1)C(=O)N[C@@H](CCCN=C(N)N)C(=O)N[C@@H](CO)C(=O)NCCCC[C@H](NC(=O)[C@@H]1CSSC[C@H](NC(=O)[C@H](Cc2ccc3ccccc3c2)NC(=O)[C@H](CCCN=C(N)N)NC(=O)[C@@H](N)CCCN=C(N)N)C(=O)N[C@@H](Cc2ccc(O)cc2)C(=O)N[C@@H](CCCN=C(N)N)C(=O)N[C@@H](CCCCN)C(=O)N[C@H](CCCCN)C(=O)N2CCC[C@H]2C(=O)N[C@@H](Cc2ccc(O)cc2)C(=O)N[C@@H](CCCN=C(N)N)C(=O)N[C@@H](CCCN=C(N)N)C(=O)C1)C(=O)O` was tested, and the IC50 [1] was 5.67 nM.
Molecule `NCCCC[C@@H]1NC(=O)[C@H](CCCN=C(N)N)NC(=O)[C@H](Cc2ccc(O)cc2)NC(=O)[C@@H](NC(=O)[C@H](Cc2ccc3ccccc3c2)NC(=O)[C@H](CCCN=C(N)N)NC(=O)[C@@H](N)CCCN=C(N)N)CSSC[C@@H](C(=O)N[C@@H](CCCN=C(N)N)C(=O)O)CC(=O)[C@H](CCCNC(N)=O)NC(=O)[C@H](CCCN=C(N)N)NC(=O)[C@H](Cc2ccc(O)cc2)NC(=O)[C@@H]2CCCN2C(=O)[C@@H](CCCCN)NC1=O` has an IC50 [1] of 1.56 nM.
With `CC(C)C[C@H](NC(=O)[C@H](CO)NC(=O)[C@@H](NC(=O)[C@@H]1CCCN1C(=O)[C@@H](N)CCCCN)C(C)C)C(=O)N[C@@H](CO)C(=O)N[C@@H](Cc1ccc(O)cc1)C(=O)NCCCC[C@H](NC(=O)[C@@H]1CSSC[C@H](NC(=O)[C@H](Cc2ccc3ccccc3c2)NC(=O)[C@H](CCCNC(=N)N)NC(=O)[C@@H](N)CCCNC(=N)N)C(=O)N[C@@H](Cc2ccc(O)cc2)C(=O)N[C@@H](CCCNC(=N)N)C(=O)N[C@@H](CCCCN)C(=O)N[C@H](CCCCN)C(=O)N2CCC[C@H]2C(=O)N[C@@H](Cc2ccc(O)cc2)C(=O)N[C@@H](CCCNC(=N)N)C(=O)N[C@@H](CCCNC(=N)N)C(=O)C1)C(=O)O` the IC50 [1] was 38.6 nM and the Activity [2] was “Active”.
With `CC(C)C[C@H](NC(=O)[C@H](CO)NC(=O)[C@@H](NC(=O)[C@@H]1CCCN1C(=O)[C@@H](N)CCCCN)C(C)C)C(=O)N[C@@H](CO)C(=O)N[C@@H](Cc1ccc(O)cc1)C(=O)N[C@@H](CCCNC(=N)N)C(=O)NCCCC[C@H](NC(=O)[C@@H]1CSSC[C@H](NC(=O)[C@H](Cc2ccc3ccccc3c2)NC(=O)[C@H](CCCNC(=N)N)NC(=O)[C@@H](N)CCCNC(=N)N)C(=O)N[C@@H](Cc2ccc(O)cc2)C(=O)N[C@@H](CCCNC(=N)N)C(=O)N[C@@H](CCCCN)C(=O)N[C@H](CCCCN)C(=O)N2CCC[C@H]2C(=O)N[C@@H](Cc2ccc(O)cc2)C(=O)N[C@@H](CCCNC(=N)N)C(=O)N[C@@H](CCCNC(=N)N)C(=O)C1)C(=O)O` the Activity [3] was “inactive” and the IC50 [1] was 16.5 nM.
`CC(C)C[C@H](NC(=O)[C@H](CO)NC(=O)[C@@H](NC(=O)[C@@H]1CCCN1C(=O)[C@@H](N)CCCCN)C(C)C)C(=O)N[C@@H](CO)C(=O)N[C@@H](Cc1ccc(O)cc1)C(=O)N[C@@H](CCCNC(=N)N)C(=O)N[C@@H](CO)C(=O)N[C@@H](C)C(=O)NCCCC[C@H](NC(=O)[C@@H]1CSSC[C@H](NC(=O)[C@H](Cc2ccc3ccccc3c2)NC(=O)[C@H](CCCNC(=N)N)NC(=O)[C@@H](N)CCCNC(=N)N)C(=O)N[C@@H](Cc2ccc(O)cc2)C(=O)N[C@@H](CCCNC(=N)N)C(=O)N[C@@H](CCCCN)C(=O)N[C@H](CCCCN)C(=O)N2CCC[C@H]2C(=O)N[C@@H](Cc2ccc(O)cc2)C(=O)N[C@@H](CCCNC(=N)N)C(=O)N[C@@H](CCCNC(=N)N)C(=O)C1)C(=O)O` was tested, and the Activity [2] was “Active”.
For `CC(C)C[C@H](NC(=O)[C@H](CO)NC(=O)[C@@H](NC(=O)[C@@H]1CCCN1C(=O)[C@@H](N)CCCCN)C(C)C)C(=O)N[C@@H](CO)C(=O)NCCCC[C@H](NC(=O)[C@@H]1CSSC[C@H](NC(=O)[C@H](Cc2ccc3ccccc3c2)NC(=O)[C@H](CCCNC(=N)N)NC(=O)[C@@H](N)CCCNC(=N)N)C(=O)N[C@@H](Cc2ccc(O)cc2)C(=O)N[C@@H](CCCNC(=N)N)C(=O)N[C@@H](CCCCN)C(=O)N[C@H](CCCCN)C(=O)N2CCC[C@H]2C(=O)N[C@@H](Cc2ccc(O)cc2)C(=O)N[C@@H](CCCNC(=N)N)C(=O)N[C@@H](CCCNC(N)=O)C(=O)C1)C(=O)O`, the Activity [3] was “inactive”.
`CC(C)C[C@H](NC(=O)[C@H](CO)NC(=O)[C@@H](NC(=O)[C@@H]1CCCN1C(=O)[C@@H](N)CCCCN)C(C)C)C(=O)N[C@@H](CO)C(=O)NCCCC[C@H](NC(=O)[C@@H]1CSSC[C@H](NC(=O)[C@H](Cc2ccc3ccccc3c2)NC(=O)[C@H](CCCN=C(N)N)NC(=O)[C@@H](N)CCCN=C(N)N)C(=O)N[C@@H](Cc2ccc(O)cc2)C(=O)N[C@@H](CCCN=C(N)N)C(=O)N[C@@H](CCCCN)C(=O)N[C@H](CCCCN)C(=O)N2CCC[C@H]2C(=O)N[C@@H](Cc2ccc(O)cc2)C(=O)N[C@@H](CCCN=C(N)N)C(=O)N[C@@H](CCCNC(N)=O)C(=O)C1)C(=O)O` showed an IC50 [1] of 62 nM.
For `CC(C)C[C@H](NC(=O)[C@H](CO)NC(=O)[C@@H](NC(=O)[C@@H]1CCCN1C(=O)[C@@H](N)CCCCN)C(C)C)C(=O)N[C@@H](CO)C(=O)N[C@@H](Cc1ccc(O)cc1)C(=O)N[C@@H](CCCNC(=N)N)C(=O)N[C@@H](CO)C(=O)NCCCC[C@H](NC(=O)[C@@H]1CSSC[C@H](NC(=O)[C@H](Cc2ccc3ccccc3c2)NC(=O)[C@H](CCCNC(=N)N)NC(=O)[C@@H](N)CCCNC(=N)N)C(=O)N[C@@H](Cc2ccc(O)cc2)C(=O)N[C@@H](CCCNC(=N)N)C(=O)N[C@@H](CCCCN)C(=O)N[C@H](CCCCN)C(=O)N2CCC[C@H]2C(=O)N[C@@H](Cc2ccc(O)cc2)C(=O)N[C@@H](CCCNC(=N)N)C(=O)N[C@@H](CCCNC(=N)N)C(=O)C1)C(=O)O`, the Activity [2] was “Active”.
With `CC(C)C[C@H](NC(=O)[C@H](CO)NC(=O)[C@@H](NC(=O)[C@@H]1CCCN1C(=O)[C@@H](N)CCCCN)C(C)C)C(=O)N[C@@H](CO)C(=O)NCCCC[C@H](NC(=O)[C@@H]1CSSC[C@H](NC(=O)[C@H](Cc2ccc3ccccc3c2)NC(=O)[C@H](CCCNC(=N)N)NC(=O)[C@@H](N)CCCNC(=N)N)C(=O)N[C@@H](Cc2ccc(O)cc2)C(=O)N[C@@H](CCCNC(=N)N)C(=O)N[C@@H](CCCCN)C(=O)N[C@H](CCCCN)C(=O)N2CCC[C@H]2C(=O)N[C@@H](Cc2ccc(O)cc2)C(=O)N[C@@H](CCCNC(=N)N)C(=O)N[C@@H](CCCNC(=N)N)C(=O)C1)C(=O)O` the Activity [3] was “inactive” and the IC50 [1] was 28.3 nM.
Work on `CC(C)C[C@H](NC(=O)[C@H](CO)NC(=O)[C@@H](NC(=O)[C@@H]1CCCN1C(=O)[C@@H](N)CCCCN)C(C)C)C(=O)N[C@@H](CO)C(=O)N[C@@H](Cc1ccc(O)cc1)C(=O)N[C@@H](CCCN=C(N)N)C(=O)NCCCC[C@@H]1NC(=O)[C@H](CCCN=C(N)N)NC(=O)[C@H](Cc2ccc(O)cc2)NC(=O)[C@@H]2CCCN2C(=O)[C@@H](CCCCN)NC(=O)[C@H](CCCCN)NC(=O)[C@H](CCCN=C(N)N)NC(=O)[C@H](Cc2ccc(O)cc2)NC(=O)[C@@H](NC(=O)[C@H](Cc2ccc3ccccc3c2)NC(=O)[C@H](CCCN=C(N)N)NC(=O)[C@@H](N)CCCN=C(N)N)CSSC[C@@H](C(=O)N[C@@H](CCCN=C(N)N)C(=O)O)CC1=O` yielded an IC50 [1] of 1.36 nM.
`CC(C)C[C@H](NC(=O)[C@H](CO)NC(=O)[C@@H](NC(=O)[C@@H]1CCCN1C(=O)[C@@H](N)CCCCN)C(C)C)C(=O)N[C@@H](CO)C(=O)N[C@@H](Cc1ccc(O)cc1)C(=O)N[C@@H](CCCNC(=N)N)C(=O)NCCCC[C@@H]1NC(=O)[C@H](CCCNC(=N)N)NC(=O)[C@H](Cc2ccc(O)cc2)NC(=O)[C@@H]2CCCN2C(=O)[C@@H](CCCCN)NC(=O)[C@H](CCCCN)NC(=O)[C@H](CCCNC(=N)N)NC(=O)[C@H](Cc2ccc(O)cc2)NC(=O)[C@@H](NC(=O)[C@H](Cc2ccc3ccccc3c2)NC(=O)[C@H](CCCNC(=N)N)NC(=O)[C@@H](N)CCCNC(=N)N)CSSC[C@@H](C(=O)N[C@@H](CCCNC(=N)N)C(=O)O)CC1=O` was tested, and the Activity [4] was “Active”.
`CC(C)C[C@H](NC(=O)[C@H](CO)NC(=O)[C@@H](NC(=O)[C@@H]1CCCN1C(=O)[C@@H](N)CCCCN)C(C)C)C(=O)N[C@@H](CO)C(=O)N[C@@H](Cc1ccc(O)cc1)C(=O)N[C@@H](CCCNC(=N)N)C(=O)N[C@@H](CO)C(=O)NCCCC[C@H](NC(=O)[C@@H]1CSSC[C@H](NC(=O)[C@H](Cc2ccc3ccccc3c2)NC(=O)[C@H](CCCNC(=N)N)NC(=O)[C@@H](N)CCCNC(=N)N)C(=O)N[C@@H](Cc2ccc(O)cc2)C(=O)N[C@@H](CCCNC(=N)N)C(=O)N[C@@H](CCCCN)C(=O)N[C@H](CCCCN)C(=O)N2CCC[C@H]2C(=O)N[C@@H](Cc2ccc(O)cc2)C(=O)N[C@@H](CCCNC(=N)N)C(=O)N[C@@H](CCCNC(N)=O)C(=O)C1)C(=O)O` was tested, and the Activity [3] was “inactive” and the IC50 [1] was 21.2 nM.
With `CC(C)C[C@H](NC(=O)[C@H](CO)NC(=O)[C@@H](NC(=O)[C@@H]1CCCN1C(=O)[C@@H](N)CCCCN)C(C)C)C(=O)N[C@@H](CO)C(=O)N[C@@H](Cc1ccc(O)cc1)C(=O)N[C@@H](CCCN=C(N)N)C(=O)NCCCC[C@H](NC(=O)[C@@H]1CSSC[C@H](NC(=O)[C@H](Cc2ccc3ccccc3c2)NC(=O)[C@H](CCCN=C(N)N)NC(=O)[C@@H](N)CCCN=C(N)N)C(=O)N[C@@H](Cc2ccc(O)cc2)C(=O)N[C@@H](CCCN=C(N)N)C(=O)N[C@@H](CCCCN)C(=O)N[C@H](CCCCN)C(=O)N2CCC[C@H]2C(=O)N[C@@H](Cc2ccc(O)cc2)C(=O)N[C@@H](CCCN=C(N)N)C(=O)N[C@@H](CCCNC(N)=O)C(=O)C1)C(=O)O` the IC50 [1] was 21.7 nM.
